System: cornea
Assay: Digital corneal crosslinking: photoinitiator solution dropped on the cornea, then selective local irradiation through a digital micromirror device
Assay type: in vivo
Protocol: A digital corneal crosslinking method to adjust the corneal curvature wherein a composition comprising a photoinitiator compound is administered to the corneal stromal of the subject, and the corneal is selectively and locally irradiated by utilizing digital micromirror device (DMD) controlled by a computer, whereby the corneal curvature is altered.
(§1) The epithelial tissue of an area of 7 mm diameter in the middle of the cornea was removed after superficial anesthesia. A dextran solution of 200 g/L with 1 g/L riboflavin was dropped to corneal surface in batches. The location of the riboflavin diffused into the corneal surface was observed by cobalt blue light of a slit lamp. Digital corneal crosslinking device was used to selectively irradiate the local area of the cornea. The light's wavelength is 365 nm, the irradiation area is shown in FIG. 2, the light power is 1.2 mW/cm^2, irradiation time is 5 minutes.
During irradiation process, a photoinitiator solution and superficial anesthesia were used to wash the corneal surface in phases. Antibiotic eye formulations were applied to the eye and corneal contact lens were used until the corneal epithelium was healed.
The epithelial tissue of an area of 7 mm diameter in the middle of the cornea was removed after superficial anesthesia. A dextran solution of 200 g/L with 1 g/L riboflavin sodium phosphate was dropped to corneal surface in batches. The location of the riboflavin diffused into the corneal surface was observed by cobalt blue light of a slit lamp. Digital corneal crosslinking device was used to selectively irradiate the local area of the cornea. The light's wavelength is 365 nm, the irradiation area is the same like that in example 1, the light power is 1.2 mW/cm^2, irradiation time is 5 minutes.
as §1, with “of 5-9” for “of 7”, “g/L eosin Y” for “g/L riboflavin”, “the eosin Y” for “the riboflavin”, “is 550” for “is 365”, “FIG. 3,” for “FIG. 2,”
During irradiation process, the eosin Y solution and superficial anesthesia were used to wash the corneal surface in phases. Antibiotic eye formulations were applied to the eye and corneal contact lens were used until the corneal epithelium was healed.
as §1, with “tissue” for “tissue of an area of 7 mm diameter in the middle”, “removed and a” for “removed after superficial anesthesia. A”, “FIG. 4,” for “FIG. 2,”
The epithelial tissue of the cornea was kept intact and a dextran solution of 200 g/L with 1.5 g/L EDTA sodium and 1.5 g/L riboflavin was dropped to corneal surface in batches. The location of the riboflavin diffused into the corneal surface was observed by cobalt blue light of a slit lamp. Digital corneal crosslinking device was used to selectively irradiate the local area of the cornea.

Structure (SMILES): O=C([O-])c1ccccc1-c1c2cc(Br)c(=O)c(Br)c-2oc2c(Br)c([O-])c(Br)cc12.[Na+].[Na+] [eosin Y]
- corneal surface curvature (Example 3: epithelium removed (5-9 mm), dextran solution 200 g/L with 1 g/L eosin Y, 550 nm, irradiation area of FIG. 3, 1.2 mW/cm^2, 5 minutes): decreased

Structure (SMILES): Cc1cc2nc3c(=O)[nH]c(=O)nc-3n(C[C@H](O)[C@H](O)[C@H](O)COP(=O)(O)O)c2cc1C [riboflavin sodium phosphate]
- corneal surface curvature (Example 2: epithelium removed (7 mm), dextran solution 200 g/L with 1 g/L riboflavin sodium phosphate, 365 nm, irradiation area as example 1, 1.2 mW/cm^2, 5 minutes): the same as example 1

Structure (SMILES): Cc1cc2nc3c(=O)[nH]c(=O)nc-3n(C[C@H](O)[C@H](O)[C@H](O)CO)c2cc1C [riboflavin]
- corneal surface curvature (Example 1: epithelium removed (7 mm), dextran solution 200 g/L with 1 g/L riboflavin, 365 nm, irradiation area of FIG. 2, 1.2 mW/cm^2, 5 minutes): increased
- corneal curvature (Example 4: epithelium removed, dextran solution 200 g/L with 1 g/L riboflavin, 365 nm, irradiation area of FIG. 4, 1.2 mW/cm^2, 5 minutes): locally changed
- result (corneal surface curvature) (Example 5: epithelium kept intact, dextran solution 200 g/L with 1.5 g/L EDTA sodium and 1.5 g/L riboflavin, 365 nm, irradiation area as example 1, 1.2 mW/cm^2, 10 minutes): the same as example 1
